IC50 data for 25 compounds are collected here from patent publication US9145415B2, “Nitrogen-containing heterocyclic compound or salt thereof” (FUJIFILM Corporation, priority 2012, dated 2015).

Test [1] has as its target T1, human FLT3 protein (FLT3 (WT)) (Homo sapiens, UniProt P36888).
T1 construct: human FLT3 protein (intracellular region, 564 to 993 aa); GST; purchased Carna Biosciences; host or cells: baculovirus expression system
T1 sequence (P36888 564-993): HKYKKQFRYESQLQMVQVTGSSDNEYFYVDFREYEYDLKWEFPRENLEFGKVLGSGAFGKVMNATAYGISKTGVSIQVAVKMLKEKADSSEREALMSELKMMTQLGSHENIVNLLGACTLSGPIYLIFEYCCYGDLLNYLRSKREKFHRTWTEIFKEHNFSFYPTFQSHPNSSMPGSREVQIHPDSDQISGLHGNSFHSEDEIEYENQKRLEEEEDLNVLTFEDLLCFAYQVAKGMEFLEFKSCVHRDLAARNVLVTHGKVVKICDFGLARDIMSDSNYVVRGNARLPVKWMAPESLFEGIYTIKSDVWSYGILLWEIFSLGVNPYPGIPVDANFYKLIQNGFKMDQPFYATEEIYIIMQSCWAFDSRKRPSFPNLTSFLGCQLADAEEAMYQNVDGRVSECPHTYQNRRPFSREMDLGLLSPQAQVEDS
Description: FLT3 inhibition test (FLT3 enzyme inhibition, time-resolved fluorescence of substrate peptide phosphorylation). It counts as biochemical. The conditions noted are these: read-out: FLT3 (WT) enzyme inhibition activity. In short, it runs like this: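 Substrate peptide phosphorylation detected by time-resolved fluorescence after a 30 min kinase reaction at 25° C with 50 μM ATP (final). Beforehand, compound and FLT3 (WT, 1.2 μg) stood 15 min at 25° C in HEPES buffer pH 7.5 containing MgCl2, NaCl, BSA and DTT.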

Test [2] has as its system MV4-11 cells. The experiment in a line: Leukemia cell proliferation inhibition test (ATPlite), MV4-11. The conditions noted are these: Homo sapiens, read-out: MV4-11 cell proliferation inhibition effect. It counts as cell-based. In short, it runs like this: (§1)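 Molm-13 or MV4-11 cells in RPMI with 10% FBS and pen/strep, seeded at 10,000 cells per well, were exposed to serially diluted compound for 72 hours at 37° C, 5% CO2. Total cellular ATP was read by luciferase luminescence. GI50 came from sigmoid fits against the 0.1% DMSO control, in duplicate.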
Background: ATP-based viability assays read luminescence as a measure of living cells.

In test [3] the test system is Molm-13 cells. The experiment in a line: Leukemia cell proliferation inhibition test (ATPlite), Molm-13. It counts as cell-based. The conditions noted are these: Homo sapiens, read-out: MOLM13 cell proliferation inhibition effect. In outline:
as §1

[4] abbreviates: GST-fused human FLT3 (564 to 993 aa), ATP 50 μM.
Where [5] appears, read: MV4-11, 72 h, MV4-11, 72 hours culture, ATPlite, GI50 per method.
Where [6] appears, read: MOLM-13, 72 h, Molm-13, 72 hours culture, ATPlite, GI50 per method.

Like-named read-outs stand apart in the source and are kept apart here. Where only a bound is given, the exact number is not on record here.

Regarding `CCCNc1nc(Nc2cccc(C#N)c2)ncc1C(=O)Nc1cccc(NC(=O)[C@H](C)N(C)C(=O)/C=C/CN(C)C)c1` [Compound 6-3, (S,E)-2-((3-cyanophenyl)amino)-N-(3-(2-(4-(dimethylamino)-N-methyl-2-butenamido)propanamido)phenyl)-4-(propylamino)pyrimidine-5-carboxamide], the IC50 was less than 10 nM in test [1] (setting [4]), 10 to 100 nM in test [2] (setting [5]) and 10 to 100 nM in test [3] (setting [6]).

For the compound `CCCNc1nc(Nc2ccc(C(N)=O)cc2)ncc1CCCCCNC(=O)CNC(=O)/C=C/CN(C)C` [Compound 7-29], the IC50 is less than 10 nM in test [1] (setting [4]), 10 to 100 nM in test [2] (setting [5]) and 100 to 1000 nM in test [3] (setting [6]).

For the compound `CCCNc1nc(Nc2cnc3[nH]nc(C)c3c2)ncc1C#CCCCNC(=O)[C@H](C)N(C)C(=O)/C=C/CN(C)C` [Compound 22-51, (S,E)-4-(Dimethylamino)-N-methyl-N-(1-((5-(2-((3-methyl-1H-pyrazolo[3,4-b]pyridin-5-yl)amino)-4-(propylamino)pyrimidin-5-yl)-4-pentyn-1-yl)amino)-1-oxopropan-2-yl)-2-butenamide], the IC50 was less than 10 nM in test [1] (FLT3 (WT)); less than 10 nM in test [2] (MV4-11, MV4-11 cell); less than 10 nM in test [3] (MOLM-13, MOLM13 cell).

Take `C=CC(=O)N[C@@H](C)C(=O)Nc1cccc(NC(=O)c2cnc(NCCc3ccncc3)nc2NCCC)c1` [Compound 1-1, (S)—N-(3-(2-(acrylylamido)propanamido)phenyl)-4-(propylamino)-2-((2-(pyridin-4-yl)ethyl)amino)pyrimidine-5-carboxamide]: the IC50 in test [1] (setting [4]) was less than 10 nM; in test [2] (setting [5]) it was 10 to 100 nM; in test [3] (setting [6]), 10 to 100 nM.

On to `C[C@@H](C(=O)NCCCC#Cc1cnc(Nc2ccc(C#N)cc2)nc1-c1ccccc1)N(C)C(=O)/C=C/CN(C)C` [Compound 20-1, (S,E)-N-(1-((5-(2-((4-cyanophenyl)amino)-4-phenylpyrimidin-5-yl)-4-pentyn-1-yl)amino)-1-oxopropan-2-yl)-4-(dimethylamino)-N-methyl-2-butenamide], for which the IC50 was 10 to 100 nM in test [1] (setting [4]), less than 10 nM in test [2] (setting [5]) and less than 10 nM in test [3] (setting [6]).

Turning to `CCCNc1nc(Nc2cccc3cn[nH]c23)ncc1C#CCCCNC(=O)[C@H](C)N(C)C(=O)/C=C/CN(C)C` [Compound 21-56], the IC50 in test [1] (FLT3 (WT)) lay in the range of 10 to 100 nM; in test [2] (MV4-11, MV4-11 cell), 100 to 1000 nM; in test [3] (MOLM-13, MOLM13 cell), 100 to 1000 nM.

For the compound `C[C@@H](C(=O)N[C@H]1CCC[C@@H](C#Cc2cnc(Nc3cccc(F)c3)nc2NC2CC2)C1)N(C)C(=O)/C=C/CN(C)C` [Compound 21-29], the IC50 in test [1] (setting [4]), in test [2] (setting [5]) and in test [3] (setting [6]) was less than 10 nM throughout.

`CCCNc1nc(Nc2ccnc(F)c2)ncc1C#CC(C)(C)CCNC(=O)[C@H](C)N(C)C(=O)/C=C/CN(C)C` [Compound 9-19]: the IC50 in test [1] (setting [4]), in test [2] (setting [5]) and in test [3] (setting [6]) was less than 10 nM throughout.

With `C[C@@H](C(=O)NCCC(C)(C)C#Cc1cnc(Nc2ccnc(F)c2)nc1NC1CC1)N(C)C(=O)/C=C/CN(C)C` [Compound 9-20], the IC50 in test [1] (setting [4]), in test [2] (setting [5]) and in test [3] (setting [6]) was less than 10 nM throughout.

`CCCNc1nc(Nc2ccc(C#N)cc2)ncc1C#CCCCNC(=O)[C@@H]1CCCCN1C(=O)/C=C/CN(C)C` [Compound 7-37]: the IC50 in test [1] (setting [4]), in test [2] (setting [5]) and in test [3] (setting [6]) was less than 10 nM each time.

For the compound `CNc1nc(Nc2ccc(C#N)cc2)ncc1C#C[C@H]1C[C@@H](NC(=O)[C@H](C)N(C)C(=O)/C=C/CN(C)C)C1` [Compound 13-14, (E)-N—((S)-1-(((1S,3R)-3-((2-((4-Cyanophenyl)amino)-4-(methylamino)pyrimidin-5-yl)ethynyl)cyclobutyl)amino)-1-oxopropan-2-yl)-4-(dimethylamino)-N-methyl-2-butenamide], the IC50 in test [1] (setting [4]), in test [2] (setting [5]) and in test [3] (setting [6]) was less than 10 nM throughout.

For `CCCNc1nc(NC(=O)Nc2ccncc2)ncc1C(=O)Nc1cccc(NC(=O)[C@H](C)N(C)C(=O)/C=C/CN(C)C)c1` [Compound 6-14], the IC50 in test [1] (setting [4]) is less than 10 nM; in test [2] (setting [5]) it was less than 10 nM; in test [3] (setting [6]), 10 to 100 nM.

As to `CCCNc1nc(Nc2cccc(F)c2)ncc1C#CCCCNC(=O)[C@@H]1CC(F)(F)CN1C(=O)/C=C/CN(C)C` [Compound 7-53], the IC50 in test [1] (setting [4]) is 10 to 100 nM; in test [2] (setting [5]), less than 10 nM; in test [3] (setting [6]), less than 10 nM.

`CCCNc1nc(Nc2cccc(F)c2)ncc1C#CCCCNC(=O)[C@@H]1C[C@H](OC)CN1C(=O)/C=C/CN(C)C` [Compound 7-59]: the IC50 in test [1] (setting [4]), in test [2] (setting [5]) and in test [3] (setting [6]) was less than 10 nM each time.

Regarding `CCCNc1nc(Nc2ccc(C(N)=O)cc2)ncc1C#Cc1cccc(NC(=O)[C@H](C)N(C)C(=O)/C=C/CN(C)C)c1` [Compound 8-2, (S,E)-4-((5-((3-(2-(4-(Dimethylamino)-N-methyl-2-butenamido)propanamido)phenyl)ethynyl)-4-(propylamino)pyrimidin-2-yl)amino)benzamide], the IC50 in test [1] (setting [4]), in test [2] (setting [5]) and in test [3] (setting [6]) was less than 10 nM throughout.

Turning to `COc1ccc(Nc2nc(NC3CC3)ncc2C#CCCCNC(=O)[C@H](C)N(C)C(=O)/C=C/CN(C)C)cn1` [Compound 22-24], the IC50 in test [1] (FLT3 (WT)) was in the range of 10 to 100 nM; in test [2] (MV4-11, MV4-11 cell), 10 to 100 nM; in test [3] (MOLM-13, MOLM13 cell) it was 10 to 100 nM.

Regarding `CCCNc1nc(Nc2cncc(F)c2)ncc1C#CCCCNC(=O)[C@H](C)N(C)C(=O)/C=C/CN(C)C` [Compound 22-8], the IC50 in test [1] (FLT3 (WT)) is less than 10 nM; in test [2] (MV4-11, MV4-11 cell) it was less than 10 nM; in test [3] (MOLM-13, MOLM13 cell) it was 10 to 100 nM.

Regarding `CCCNc1nc(Nc2cnc3c(cnn3C)c2)ncc1C#CCCCNC(=O)[C@@H]1CCCN1C(=O)/C=C/CN(C)C` [Compound 22-43, (S,E)-1-(4-(Dimethylamino)-2-butenoyl)-N-(5-(2-((1-methyl-1H-pyrazolo[3,4-b]pyridin-5-yl)amino)-4-(propylamino)pyrimidin-5-yl)-4-pentyn-1-yl)pyrrolidine-2-carboxamide], the IC50 is less than 10 nM in test [1] (FLT3 (WT)); less than 10 nM in test [2] (MV4-11, MV4-11 cell); less than 10 nM in test [3] (MOLM-13, MOLM13 cell).

On to `CNc1ncc(C#C[C@H]2C[C@@H](NC(=O)[C@H](C)N(C)C(=O)/C=C/CN(C)C)C2)c(Nc2ccc(OC)nc2)n1` [Compound 13-22], for which the IC50 in test [1] (setting [4]), in test [2] (setting [5]) and in test [3] (setting [6]) was less than 10 nM in each case.

Consider `CCCNc1nc(Nc2cnc3c(c2)c(C)nn3CCOC)ncc1C#CCCCNC(=O)[C@@H]1CCCN1C(=O)/C=C/CN(C)C` [Compound 22-46], for which the IC50 in test [1] (FLT3 (WT)) is less than 10 nM; in test [2] (MV4-11, MV4-11 cell), less than 10 nM; in test [3] (MOLM-13, MOLM13 cell), less than 10 nM.

With `CNc1nc(Nc2ccc(F)cc2)ncc1C#CCCCNC(=O)[C@@H]1C[C@H](OC)CN1C(=O)/C=C/CN(C)C` [Compound 7-82], the IC50 in test [1] (setting [4]), in test [2] (setting [5]) and in test [3] (setting [6]) was less than 10 nM each time.

Turning to `CCCNc1nc(Nc2cccc(C#N)c2)ncc1C#C[C@H]1C[C@@H](NC(=O)[C@H](C)N(C)C(=O)/C=C/CN(C)C)C1` [Compound 13-17], the IC50 in test [1] (setting [4]), in test [2] (setting [5]) and in test [3] (setting [6]) was less than 10 nM throughout.

For the compound `CCCNc1nc(Nc2ccnc(OC)c2)ncc1C#CCCCNC(=O)CN(C)C(=O)/C=C/CN(C)C` [Compound 9-38, (E)-4-(Dimethylamino)-N-(2-((5-(2-((2-methoxypyridin-4-yl)amino)-4-(propylamino)pyrimidin-5-yl)-4-pentyn-1-yl)amino)-2-oxoethyl)-N-methyl-2-butenamide], the IC50 in test [1] (setting [4]), in test [2] (setting [5]) and in test [3] (setting [6]) was less than 10 nM each time.

Turning to `CCCNc1nc(Nc2ccc(C(N)=O)cc2)ncc1C(=O)Nc1cccc(NC(=O)[C@H](C)N(C)C(=O)/C=C/C(C)N(C)C)c1` (stereo partly drawn) [Compound 4-14], the IC50 in test [1] (setting [4]), in test [2] (setting [5]) and in test [3] (setting [6]) was less than 10 nM throughout.

Regarding `CCCNc1nc(Nc2ccc(C#N)cc2)ncc1C#C[C@@H]1CCC[C@H](NC(=O)CN(C)C(=O)/C=C/CN(C)C)C1` [Compound 13-6], the IC50 in test [1] (setting [4]), in test [2] (setting [5]) and in test [3] (setting [6]) was less than 10 nM throughout.
